# Assay results reported in patent publication US7201899B2, “Materials and methods for management of hyperacute rejection in human xenotransplantation” (BresaGen Limited, priority 1994, dated 2007).
# “Also recorded” adds a separate entry of the source.
# Experiments:
# [1] = test system: rat heart; assay: Langendorf isolated perfused ex vivo heart model; settings: sugar 10 mM, human plasma to 13%
# Description: A. Preparation and Storage of Human Plasma • 1. Centrifuge fresh human blood at 3000 rpm, 10 min., 4° C. to remove red blood cells (RBC's) • 2. Remove the plasma • 3. Centrifuge the plasma at 10,000 rpm, 10 min. 4° C. to remove any remaining cells; decant the plasma • 4. Add 2.5 ml of 0.1M EDTA pH 7.30 for every 50 ml of plasma • 5. Store 50 ml aliquots at −70° C. • 6. For heat-inactivated plasma, heat at 56° C. for 60 min., then centrifuge at 2,500 rpm for 10 min.
# Plasma prepared from different blood packs is thawed at 37° C., pooled and filtered (100 μm steel mesh, 8.0 μm and 4.5 μm Millipore filters, sequentially). Cacl2 is added at 0.58 mg/ml plasma, and the plasma kept on ice until ready for perfusion.
# 1. Anesthetize rats with Nembutal (1 μl sodium pentobarbitone (60 mg/ml)/g body weight) and mice with ether.
# 2. Surgically expose the heart and inject heparin (Porcine Mucous, 10,000 U/ml) into the femoral vein (rats: 0.3 ml injected).
# 3. Remove heart and place in ice-cold Krebs-Henseleit buffer containing heparin (0.2 ml/50 ml buffer. • Krebs-Henseleit buffer: • 119 mM NaCl • 25 mM NaHCO3 • 4.6 mM KCl • 1.2 mM MgSO4.7H2O • 1.3 mM CaCl2.2H2O • 1.2 mM KH2PO4 • 11 mM glucose • 0.25% (v/v) BSA • Adjust to pH 7.4; store at 4° C.
# 4. Connect aorta to the canula of the Langendorf perfusion apparatus and tie firmly. The apparatus was assembled by the present inventors according to experimental requirements of the Langendorf heart model as described in Doring & Dehnerrt, The Isolated Perfused Heart According to Langendorf, Bionesstechnik-Verlag March GmbH, D7806, West Germany.
# 5. Perfuse with Krebs-Henseleit buffer (made fresh each day), which is gassed continuously with carbogen (95% O2, 5% CO2) at a pressure of 100 mmHg, at 37° C.
# 6. Attach a hook, connected to a transducer (Physiograph MK-111-S, Narco Bio-Systems) to the apex of the heart.
# 7. Perfuse heart for 20 min. with Krebs-Henseleit buffer to enable heart to stabilize (reservoir volume: 270 ml).
# 8. […]
# [2] = test system: PAE's; assay: Cytotox LDH release assay: effect of sugars on lysis of PAE's by human serum; assay type: cell-based, porcine; settings: 50% human serum, sugar 1 mM to 100 mM
# Description: B. LDH Release Assay • 1. […] Controls: • a) Spontaneous release (no antibody or complement) • 25 μl labeled cells • 75 μl RPMI/10% FCS (heat inactivated) • b) Maximum release • 25 μl labeled cells • 50 μl 16% Triton X-100 • 25 μl RPMI/10% FCS (heat inactivated) • 3. Calculation of % Lysis: % Lysis=Experimental release−(Spontaneous release cpm+sugar cpm)×100 Maximum release−(Spontaneous release cpm+sugar cpm) • 4. Experimental Design:
# The effect of adding the disaccharide sugars melibiose ([…]) and lactose (Gal β1→4 Glu) on the lysis of PAE's by human serum was assessed using the Cytotox non-radioactive LDH release assay. PAE's were incubated in the presence of 50% human serum as the source of xenoantibody and complement, together with various concentrations of each sugar (1 mM to 100 mM).
smiles,measurement,setting,value
"OC[C@H]1O[C@@H](O[C@H]2[C@H](O)[C@@H](O)[C@@H](O)O[C@@H]2CO)[C@H](O)[C@@H](O)[C@H]1O [Lactose, 4-O-β-D.galactopyranosyl-α-D-glucose]",cardiac function of rat heart perfused with human plasma plus sugar,[1],does-not prolong heart survival
same,cardiac function of rat heart perfused with human plasma plus sugar,[1]; listed as lactose,the heart essentially stopped beating within minutes. The same result was obtained
same,protection of PAE's from lysis by human serum,[2],not
"O=C[C@H](O)[C@@H](O)[C@H](O)[C@H](O)CO[C@H]1O[C@H](CO)[C@H](O)[C@H](O)[C@H]1O [Melibiose, 6-O-α-D-galactopyranosyl-D-glucose]",cardiac function of rat heart perfused with human plasma plus sugar,[1],the heart was able to maintain a strong beat; also recorded: prolongs heart survival and output
same,protection of PAE's from lysis by human serum,[2],protected the pig cells from lysis
